Consider 6 molecules from patent publication US5691311A (Biogen, Inc., priority 1995, dated 1997).

Data set [1] has as its target T1, human α-thrombin (Homo sapiens, UniProt P00734).
T1 construct: proteolysis of the B-chain of α-thrombin; human α-thrombin-catalyzed hydrolysis of Spectrozyme TH
The data set is described as follows: Thrombin-catalyzed hydrolysis of Spectrozyme TH. In kind it is biochemical. The note with it: for Ki: method of Example 9, Spectrozyme TH. As for the experimental part:
The thrombin-catalyzed rate was monitored in a Cary 19 spectrophotometer at 405 nm and recorded continuously as a function of time. Kinetics were performed at room temperature (25°±1°C.) in a 0.05M Tris, pH 7.5, 0.1M NaCl buffer.
For a typical enzyme reaction, 1.0 ml of buffer was added to both the sample and reference cuvettes. […] Immediately following addition of substrate, the contents of the sample cuvette were mixed by use of a plastic pipette. The reaction was monitored spectrophotometrically for 5-15 minutes.
Initial rate velocities at each substrate concentration were expressed as moles Spectrozyme TH hydrolyzed/sec/mole thrombin. This was determined during the initial linear phase of the reaction (≤15% total hydrolysis of substrate) by measuring the slope of the hydrolytic reaction. Lineweaver-Burke plots were constructed accordingly, by plotting the inverse of the initial velocity against the inverse of the substrate concentration.

Data set [2] deals with T1, human α-thrombin. The data set is described as follows: Cleavage of Hirulogs by thrombin (chromogenic and HPLC assays). In kind it is biochemical. The note with it: turnover rate of Hirulog hydrolysis by thrombin. As for the experimental part:
Aliquots (0.975 ml) of the reaction mixtures were removed at various times and mixed in a cuvette with 0.025 ml Spectrozyme TH (11 μM final concentration), a chromogenic substrate. The initial rate of reaction was determined and, based on control mixtures containing thrombin in the absence of Hirulog, the % inhibition was calculated.
An alternate method employed reverse-phase HPLC separation of aliquots from a Hirulog/thrombin reaction mixture. In this assay we added human α-thrombin (0.25 μM final concentrations) to a reaction vessel containing one of the above Hirulogs (12.5 μM final concentration). Aliquots (50 μl) were removed both prior to and at various times following the addition of thrombin. The aliquots were either flash frozen of injected directly onto the HPLC column. The HPLC system employed an Applied Biosystems Liquid Chromatography System equipped with an Aquapore C, column (0.46×10 cm). The column was equilibrated in 70% solvent A (0.1% TFA in water) and 30% solvent B (0.085% TFA/70% acetonitrile) and developed with a linear gradient of from 30 to 50% solvent B over 30 minutes at a flow rate of 1 ml/minute. The effluent stream was monitored at 214 nm. Peptide concentrations were determined by measurement of peak heights.
Both of the above-described assays allow determination of the rate of Hirulog hydrolysis by thrombin (expressed in M/min) and turnover rate (kcat; expressed in min^-1).

Data set [3] concerns human α-thrombin. The data set is described as follows: human α-thrombin in 20 mM Tris-HCl pH 7.4 containing 0.1M NaCl.
For data set [4], the system named is pooled, normal human plasma. The data set can be described thus: Activated partial thromboplastin time (APTT) assay in plasma. It is filed as biochemical. The note with it: 10 to 32,300 ng/ml. The text has this:
Hirulog-8 using pooled, normal human plasma (George King Biomedical, Overland Park, Kans.) and a Coag-A-Mate XC instrument (General Diagnostics, Organon Technica, Oklahoma City, Okla.). Activity was monitored using the activated partial thromboplastin time (APTT) assay with CaCl2 and phospholipid solutions obtained from the manufacturer.

In another data set the target is thrombin (Homo sapiens, UniProt P00734). Particulars: cited from earlier work.

Read-outs that look alike come from different tables or passages of the source.

As usually defined, the Ki is a measure of affinity in units of concentration, obtained from inhibition or displacement. Broadly, the kcat is the maximal rate divided by the concentration of active sites. Regarding `CC[C@H](C)[C@H](NC(=O)[C@H](CCC(=O)O)NC(=O)[C@H](CCC(=O)O)NC(=O)[C@H](Cc1ccccc1)NC(=O)[C@H](CC(=O)O)NC(=O)CNC(=O)[C@H](CC(N)=O)NC(=O)CNC(=O)CNC(=O)CNC(=O)CNC(=O)CNC(=O)CN(C)C(=O)[C@H](CCCNC(=N)N)NC(=O)[C@@H]1CCCN1C(=O)[C@H](N)Cc1ccccc1)C(=O)N1CCC[C@H]1C(=O)N[C@@H](CCC(=O)O)C(=O)N[C@@H](CCC(=O)O)C(=O)N[C@@H](Cc1ccc(O)cc1)C(=O)N[C@@H](CC(C)C)C(=O)O` [Hirulog-10], the “inhibition of thrombin-catalyzed hydrolysis of Spectrozyme TH (in words)” value at human α-thrombin [1] is given as “poor inhibitors”. At human α-thrombin [1] (Ki), this molecule gave a Ki of more than 2000 nM. The turnover number (kcat) at human α-thrombin [2] was determined as 0.167 s⁻¹.
`CC[C@H](C)[C@H](NC(=O)[C@H](CCC(=O)O)NC(=O)[C@H](CCC(=O)O)NC(=O)[C@H](Cc1ccccc1)NC(=O)[C@H](CC(=O)O)NC(=O)CNC(=O)[C@H](CC(N)=O)NC(=O)CNC(=O)CNC(=O)CNC(=O)CNC(=O)CNC(=O)[C@H](CCCNC(=N)N)NC(=O)[C@@H]1CCCN1C(=O)[C@H](N)Cc1ccccc1)C(=O)N1CCC[C@H]1C(=O)N[C@@H](CCC(=O)O)C(=O)N[C@@H](CCC(=O)O)C(=O)N[C@@H](Cc1ccc(O)cc1)C(=O)N[C@@H](CC(C)C)C(=O)O` [Hirulog-32]: on human α-thrombin [1], the “inhibition of thrombin-catalyzed hydrolysis of Spectrozyme TH (in words)” value is “poor inhibitors”. The molecule also registered a Ki at human α-thrombin [1] (Ki) of more than 2000 nM. The kcat at human α-thrombin [2] turned out to be 8.92 s⁻¹.
For the molecule “H-(D-Phe)-Pro-(β-homoarginine)-Pro-(Gly)4 -Asn-Gly-Asp-Phe-Glu-Glu-Ile-Pro-Glu-Glu-Tyr-Leu-OH”, in the data set on human α-thrombin [3], the not cleaved entry is reported as “kcat <0.01 min^-1; resistant to thrombin cleavage”.
As to “H-(D-Phe)-Pro-(β-homoarginine)-Val-(Gly)4 -Asn-Gly-Asp-Phe-Glu-Glu-Ile-Pro-Glu-Glu-Tyr-Leu-OH”, in the data set with human α-thrombin [3], the not cleaved entry is “kcat <0.01 min^-1; resistant to thrombin cleavage”.
Consider “N-acetyl-Gly-Asp-phe-Leu-Ala-Glu-(Gly)3 -Val-Arg-Pro-(Gly)4 -Asn-Gly-Asp-Phe-Glu-Glu-Ile-Pro-Glu-Glu-Tyr-Leu-OH [Hirulog-33]”, for which the Ki at human α-thrombin [1] (read-out: Ki) was determined as 3.6 nM. Besides, the kcat at human α-thrombin [2] is 0.000933 s⁻¹.
In general, Kd refers to the free concentration of one partner at which half of the binding sites on the other are occupied at equilibrium, for simple one-to-one binding. Regarding hirudin, in data set [4], the “maximal increase of APTT of plasma” value was “too high to be measured”. Further, the Kd at thrombin (1:1 stoichiometric complex, read-out: Kd of hirudin binding to thrombin) was 0.02 nM; at thrombin (site separate from the catalytic site (anion-binding exosite), read-out: Kd of hirudin for the low affinity site on thrombin) it was 10 nM.
